The values below come from patent publication US9663543B2 (priority 2014, dated 2017).

Sequence of Human factor D (P00746 26-253 limits assumed): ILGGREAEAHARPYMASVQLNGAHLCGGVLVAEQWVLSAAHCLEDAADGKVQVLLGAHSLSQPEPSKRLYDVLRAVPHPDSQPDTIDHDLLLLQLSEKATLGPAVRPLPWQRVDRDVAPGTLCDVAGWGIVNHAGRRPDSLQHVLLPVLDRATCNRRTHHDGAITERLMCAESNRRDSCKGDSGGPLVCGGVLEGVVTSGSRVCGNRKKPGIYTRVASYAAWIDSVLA

The assay concerns the target Human factor D (Homo sapiens (Human), UniProt P00746). Type of assay: biochemical.
By IC50 is commonly meant the point on the concentration scale where inhibition reaches its midpoint. Low readings indicate greater potency, high ones weaker potency. Consider `CCOP(=O)(OCOC(=O)OC(C)C)c1ccc2c(C(C)=O)cn(CC(=O)N3C[C@H](F)C[C@H]3C(=O)NCc3cccc(Cl)c3F)c2c1` (stereo partly drawn) [Compound 6, ((3-acetyl-1-(2-((2S,4R)-2-(3-chloro-2-fluorobenzylcarbamoyl)-4-fluoropyrrolidin-1-yl)-2-oxoethyl)-1H-indol-6-yl)(ethoxy)phosphoryloxy) methyl isopropyl carbonate], for which the IC50 was < 1 µM. In the case of `COC(=O)c1cn(CC(=O)N2C[C@H](F)C[C@H]2C(=O)NCc2cccc(Cl)c2F)c2cc(P(=O)(O)O)ccc12` [Compound 14, 1-(2-((2S,4R)-2-(3-chloro-2-fluorobenzylcarbamoyl)-4-fluoropyrrolidin-1-yl)-2-oxoethyl)-3-(methoxycarbonyl)-1H-indol-6-ylphosphonic acid] it was < 1 µM; in that of `CCOP(=O)(OCC)c1ccc2c(c1)c(C(C)=O)cn2CC(=O)N1C[C@H](F)C[C@H]1C(=O)NCc1cccc(Cl)c1F` [Compound 8, diethyl 3-acetyl-1-(2-((2S,4R)-2-(3-chloro-2-fluorobenzylcarbamoyl)-4-fluoropyrrolidin-1-yl)-2-oxoethyl)-1H-indol-5-ylphosphonate], < 1 µM. In the case of `CCOP(=O)(OCC)c1ccc2c(C(C)=O)cn(CC(=O)N3C[C@H](F)C[C@H]3C(=O)NCc3cccc(Cl)c3F)c2c1` [Compound 1, diethyl 3-acetyl-1-(2-((2S,4R)-2-(3-chloro-2-fluorobenzylcarbamoyl)-4-fluoropyrrolidin-1-yl)-2-oxoethyl)-1H-indol-6-ylphosphonate], the IC50 was < 1 µM.

Take `CCOP(=O)(OCC)c1ccc2c(C(N)=O)cn(CC(=O)N3C[C@H](F)C[C@H]3C(=O)NCc3cccc(Cl)c3F)c2c1` [Compound 15, diethyl 3-carbamoyl-1-(2-((2S,4R)-2-(3-chloro-2-fluorobenzylcarbamoyl)-4-fluoropyrrolidin-1-yl)-2-oxoethyl)-1H-indol-6-ylphosphonate]: the IC50 was < 1 µM. In the case of `CC(=O)c1cn(CC(=O)N2C[C@H](F)C[C@H]2C(=O)NCc2cccc(Cl)c2F)c2cc(P(=O)(OCOC(=O)OC(C)C)OCOC(=O)OC(C)C)ccc12` [Compound 4, ((3-acetyl-1-(2-((2S,4R)-2-(3-chloro-2-fluorobenzylcarbamoyl)-4-fluoropyrrolidin-1-yl)-2-oxoethyl)-1H-indol-6-yl)phosphoryl)bis(oxy)bis (methylene) isopropyl dicarbonate] it was < 1 µM; in that of `CCOC(=O)c1nn(CC(=O)N2C[C@H](F)C[C@H]2C(=O)NCc2cccc(Cl)c2F)c2cc(P(=O)(OCC)OCC)ccc12` [Compound 11, ethyl 1-(2-((2S,4R)-2-(3-chloro-2-fluorobenzylcarbamoyl)-4-fluoropyrrolidin-1-yl)-2-oxoethyl)-6-(diethoxyphosphoryl)-1H-indazole-3-carboxylate], > 10 µM; in that of `CC(=O)c1cn(CC(=O)N2C[C@H](F)C[C@H]2C(=O)NCc2cccc(Cl)c2F)c2cc(P(=O)(O)O)c(F)cc12` [Compound 31, 3-acetyl-1-(2-((2S,4R)-2-(3-chloro-2-fluorobenzylcarbamoyl)-4-fluoropyrrolidin-1-yl)-2-oxoethyl)-5-fluoro-1H-indol-6-ylphosphonic acid], < 1 µM. With `CC(=O)c1cn(CC(=O)N2C[C@H](F)C[C@H]2C(=O)NCc2cccc(Cl)c2F)c2cc(P(=O)(OCC(F)(F)F)OCC(F)(F)F)ccc12` [Compound 19, bis(2,2,2-trifluoroethyl) 3-acetyl-1-(2-((2S,4R)-2-(3-chloro-2-fluorobenzylcarbamoyl)-4-fluoropyrrolidin-1-yl)-2-oxoethyl)-1H-indol-6-ylphosphonate], the 50% inhibitory concentration (IC50) was < 1 µM. In the case of `CC(=O)c1cn(CC(=O)N2C[C@H](F)C[C@H]2C(=O)NCc2cccc(Cl)c2F)c2ccc(P(=O)(O)O)cc12` [Compound 10, 3-acetyl-1-(2-((2S,4R)-2-(3-chloro-2-fluorobenzylcarbamoyl)-4-fluoropyrrolidin-1-yl)-2-oxoethyl)-1H-indol-5-ylphosphonic acid] it was < 1 µM.
